Data on 10 compounds can be found in patent US6538006B1, “Retroviral protease inhibitors” (Pharmacia Corporation, priority 1998, dated 2003).

The target in one data set is T1, HIV protease (Human immunodeficiency virus type 1 group M subtype B, UniProt P04585).
T1 construct: final enzyme concentration of 12.3 nanomolar, based on a molecular weight of 10,780
The data set can be described thus: HIV protease enzyme assay (fluorogenic substrate). Format: biochemical. The note with it: for IC50: HIV protease 12.3 nanomolar, substrate 80 μM, pH 6.4, read-out: Enzyme Inhibition (IC50); for inhibition at 10 µM: read-out: inhibition of the HIV enzyme. As to the method: The calculated IC50 (inhibiting concentration 50%, i.e., the concentrations at which the inhibitor compound reduces enzyme activity by 50%) values are shown in Table 1. The enzyme method is described below. The substrate is 2-aminobenzoyl-Ile-Nle-Phe(p-NO2)-Gln-ArgNH2. The positive control is MVT-101 (Miller, M. et al, Science, 246, 1149 (1989)]. The assay conditions are as follows:
Assay buffer: 20 mM sodium phosphate, pH 6.4
The above described substrate is dissolved in DMSO, then diluted 10 fold in assay buffer. Final substrate concentration in the assay is 80 μM.
HIV protease is diluted in the assay buffer to a final enzyme concentration of 12.3 nanomolar, based on a molecular weight of 10,780.
The final concentration of DMSO is 14% and the final concentration of glycerol is 18%. The test compound is dissolved in DMSO and diluted in DMSO to 10× the test concentration; 10 μL of the enzyme preparation is added, the materials mixed and then the mixture is incubated at ambient temperature for 15 minutes. The enzyme reaction is initiated by the addition of 40 μL of substrate. The increase in fluorescence is monitored at 4 time points (0, 8, 16 and 24 minutes) at ambient temperature. Each assay is carried out in duplicate wells.

The subject of the next data set is HIV-1. Put plainly: CEM cell assay, HIV inhibition in acutely infected cells (MTT). The note with it: Human immunodeficiency virus 1, CCRF-CEM, 168 h; CEM cells infected with HIV-1, 7 days, reduces cytopathicity by 50%; read-out: Antiviral Activity in Cell Culture (EC50). Format: cell-based. The protocol: (§1) The effectiveness of the compounds tested in Part A was also determined in a CEM cell assay. The HIV inhibition assay method of acutely infected cells is an automated tetrazolium based calorimetric assay essentially that reported by Pauwles et al, J. Virol. Methods 20, 309-321 (1988). Assays were performed in 96-well tissue culture plates. CEM cells, a CD4^+ cell line, were grown in RPMI-1640 medium (Gibco) supplemented with a 10% fetal calf serum and were then treated with polybrene ([…]). An 80 μL volume of medium containing 1×10^4 cells was dispensed into each well of the tissue culture plate. To each well was added a 100 μL volume of test compound dissolved in tissue culture medium (or medium without test compound as a control) to achieve the desired final concentration and the cells were incubated at 37° C. for 1 hour. A frozen culture of HIV-1 was diluted in culture medium to a concentration of 5×10^4 TCID50 per mL (TCID50=the dose of virus that infects 50% of cells in tissue culture), and a 20 μL volume of the virus sample (containing 1000 TCID50 of virus) was added to wells containing test compound and to wells containing only medium (infected control cells). Several wells received culture medium without virus (uninfected control cells). Likewise, the intrinsic toxicity of the test compound was determined by adding medium without virus to several wells containing test compound. In summary, the tissue culture plates contained the following experiments:
(§2) In experiments 2 and 4, the final concentrations of test compounds were 1, 10, 100 and 500 μg/mL. Either azidothymidine (AZT) or dideoxyinosine (ddI) was included as a positive drug control. […] DMSO was added to all control wells at an appropriate concentration.
(§3) Following the addition of virus, cells were incubated at 37° C. in a humidified, 5% CO2 atmosphere for 7 days. Test compounds could be added on days 0, 2 and 5 if desired. On day 7, post-infection, the cells in each well were resuspended and a 100 μL sample of each cell suspension was removed for assay. A 20 μL volume of a 5 mg/mL solution of 3-(4,5-dimethylthiazol-2-yl)-2,5-diphenyltetrazolium bromide (MTT) was added to each 100 μL cell suspension, and the cells were incubated for 4 hours at […] in a 5% CO2 environment. […] To each sample was added 100 μL of 10% sodium dodecylsulfate in 0.01 N HCl to lyse the cells, and samples were incubated overnight. The absorbance at 590 nm was determined for each sample using a Molecular Devices microplate reader. Absorbance values for each set of wells is compared to assess viral control infection, uninfected control cell response as well as test compound by cytotoxicity and antiviral efficacy.
(§4) The calculated EC50 (effective concentration 50%, i.e., the concentration at which the inhibitor compound reduces cytopathicity by 50%) and TD50 (toxic dose 50%, i.e., the concentration at which the inhibitor compound reduces cellular viability by 50%) values for these compounds are also shown in Table 1.

The next data set concerns CEM cells. The data set can be described thus: CEM cell assay, intrinsic toxicity of test compound (MTT, no virus). Format: cell-based. The note with it: CEM cells without virus, reduces cellular viability by 50%. As to the method:
as §1, §2, §3, §4

For the compound `C[C@H](CS(C)(=O)=O)C(=O)N[C@@H](Cc1ccccc1)[C@H](O)CN1C[C@H]2CCCC[C@H]2C[C@H]1C(=O)NC(C)(C)C`, at HIV protease, the IC50 is 0.007 µM. Also, the EC50 with HIV-1 worked out at 0.042 µM. For the same compound, in the data set on CEM cells, the “Cell Toxicity (TD50)” value is 58,000 nM.
The corresponding values for `COc1ccc(COC(=O)NC[C@@H](C)C(=O)N[C@@H](Cc2ccccc2)[C@H](O)CN2C[C@H]3CCCC[C@H]3C[C@H]2C(=O)NC(C)(C)C)cc1` are 0.002 µM, 0.052 µM and 2,000 nM.
For `CC(C)(C)NC(=O)[C@@H]1C[C@@H]2CCCC[C@@H]2CN1C[C@@H](O)[C@H](Cc1ccccc1)NC(=O)C[C@H](NC(=O)c1ccc2ccccc2n1)C(N)=O` the same measures were 0.009 µM, 0.037 µM and 5,000 nM.
For the compound `C[C@@H](C(=O)N[C@@H](Cc1ccccc1)[C@H](O)CN1C[C@H]2CCCC[C@H]2C[C@H]1C(=O)NC(C)(C)C)C(C)(C)CN`, at HIV protease, the IC50 stood at 0.009 µM. Besides, the concentration for a half-maximal effect (EC50) in the data set on HIV-1 turned out to be 0.098 µM. The “Cell Toxicity (TD50)” value with CEM cells was 59,000 nM.
The corresponding values for `C[C@@H](C(=O)N[C@@H](Cc1ccccc1)[C@H](O)CN1C[C@H]2CCCC[C@H]2C[C@H]1C(=O)NC(C)(C)C)C(C)(C)C(=O)O` are 0.023 µM, 0.184 µM and 50,000 nM.
With `COc1ccc(COC(=O)NC[C@@H](C)C(=O)N[C@@H](Cc2ccccc2)[C@H](O)CN2C[C@H]3CCCC[C@H]3C[C@H]2C(=O)NC(C)(C)C)cc1` (relative stereo) [Example 4, Carbamic Acid, [3-[[3-[3-[[(1,1-Dimethylethyl)-amino]carbonyl]octahydro-2(1H)-isoquinolinyl]-2-hydroxy-1-(phenylmethyl)propyl]amino]-2-methyl-3-oxopropyl]-, (4-Methoxyphenyl)methyl Ester, [3S-[2(1R*,(S*),2S*),3α,4aβ,8aβ]]-], the inhibition at 10 µM on HIV protease was in the range of 3 to 100%.
`C[C@H](CS(C)(=O)=O)C(=O)N[C@@H](Cc1ccccc1)[C@H](O)CN1C[C@H]2CCCC[C@H]2C[C@H]1C(=O)NC(C)(C)C` (relative stereo) [Example 6, 3-Isoquinolinecarboxamide, N-(1,1-Dimethylethyl)decahydro-2-[2-hydroxy-3-[[2-methyl-3-(methylsulfonyl)-1-oxopropyl]amino]-4-phenylbutyl]-, [3S-[2(2S*,3S*(R*)],3α,4aβ,8aβ]]-]: the inhibition at 10 µM at HIV protease fell in the range of 3 to 100%.
With `CC(C)(C)NC(=O)[C@@H]1C[C@@H]2CCCC[C@@H]2CN1C[C@@H](O)[C@H](Cc1ccccc1)NC(=O)C[C@H](NC(=O)c1ccc2ccccc2n1)C(N)=O` (relative stereo) [Example 10, Butanediamide, N^4-[3-[3-[[((1,1-Dimethylethyl)-amino]carbonyl]octahydro-2(1H)-isoquinolinyl]-2-hydroxy-1-(phenylmethyl)propyl]-2-[(2-quinolinylcarbonyl)amino]-, [3S[2[1R*(R*),2S*],3α,4aβ,8aβ]]-], the inhibition at 10 µM on HIV protease is 3 to 100%.
`C[C@@H](C(=O)N[C@@H](Cc1ccccc1)[C@H](O)CN1C[C@H]2CCCC[C@H]2C[C@H]1C(=O)NC(C)(C)C)C(C)(C)C(N)=O` (relative stereo) [Example 12, Butanamide, 4-[[3-[3-[[(1,1-Dimethylethyl)-amino]carbonyl]octahydro-2(1H)-isoquinolinyl]-2-hydroxy-1-(phenylmethyl)propyl]amino]-2,2,3-trimethyl-4-oxo-, [3S-[2[1R*(S*),2S*],3α,4aβ,8aβ]]-]: on HIV protease, the inhibition at 10 µM is 3 to 100%.
`C[C@@H](C(=O)N[C@@H](Cc1ccccc1)[C@H](O)CN1C[C@H]2CCCC[C@H]2C[C@H]1C(=O)NC(C)(C)C)C(C)(C)C(=O)O` (relative stereo) [Example 12C, butanoic acid, 4-[[3-[3-[[(1,1-dimethylethyl)amino]carbonyl]octahydro-2(1H)-isoquinolinyl]-2-hydroxy-1-(phenylmethyl)propyl]amino]-2,2,3-trimethyl-4-oxo-, [3S-[2[1R*(S*),2S*],3α,4aβ,8aβ]]-]: at HIV protease, the inhibition at 10 µM was 3 to 100%.
